Measurements from patent US20080190575A1, “Lignocellulosic Composite Material and Method for Preparing the Same” (priority 2004, published 2008).

Experiment: Dissolvability of insecticide in solvent
Format: physicochemical
Description: It has been determined that certain polar solvents are capable of dissolving at least 10 grams of the insecticide per liter of solvent. For example, it has also been determined that water is not a sufficient polar solvent for certain insecticides, such as fipronil, because it is capable of only dissolving 2.4 milligrams per liter of water. Generally, these polar solvents that are capable of dissolving at least 10 grams of the insecticide per liter are selected from at least one of an alcohol, a ketone, and an ester. More preferably, the polar solvent is selected from the group of octyl alcohol, isopropyl alcohol, methyl alcohol, acetone, carpryl alcohol, propylene carbonate, gamma-butyrolactone, 3-pentanone, 1-methyl-2-pyrrolidinone, and combinations thereof.
In Examples 1 and 2, the lignocellulosic composite material was formed having a thickness of 0.437 inches with a density of about 39 lb/ft^3. […] The fipronil was present in an amount of about 150 PPM based on the dry weight of the lignocellulosic particles. In Example 2, 0.28 grams of fipronil were dissolved in 1.00 grams of the polar solvent to form the insecticide solution. The fipronil was present in an amount of about 30 PPM based on the dry weight of the lignocellulosic particles. The polar solvent was 1-methyl-2-pyrrolidinone (NMP). NMP is capable of dissolving about 289 grams of fipronil per liter of NMP.
In Examples 3 and 4, the lignocellulosic composite material was formed having a thickness of 0.719 inches with a density of about 40 lb/ft^3. In Example 3, 1.15 grams of fipronil were dissolved in 5 grams of the polar solvent to form the insecticide solution. The fipronil was present in an amount of about 50 PPM based on the dry weight of the lignocellulosic particles. […] The fipronil was present in an amount of about 100 PPM based on the dry weight of the lignocellulosic particles. The polar solvent in Examples 3 and 4 was 3-pentanone, which is capable of dissolving about 326 grams of fipronil per liter of 3-pentanone.

N#Cc1nn(-c2c(Cl)cc(C(F)(F)F)cc2Cl)c(N)c1[S+]([O-])C(F)(F)F (stereo not drawn) [fipronil, 5-amino-1-(2,6-dichloro-4-(trifluoromethyl)phenyl)-4-((trifluoromethyl)sulfinyl)-1H-pyrazole-3-carbonitrile]
amount dissolved per liter of NMP (solvent 1-methyl-2-pyrrolidinone (NMP)): about 289 grams per liter
amount dissolved per liter of 3-pentanone (solvent 3-pentanone): about 326 grams per liter
amount dissolved per liter of water (solvent water): 2.4 milligrams per liter
